Source: patent publication US12172995B2, “Substituted indole and indazole compounds” (BRISTOL-MYERS SQUIBB COMPANY, priority 2018, dated 2024)

What was measured:
Type in all cases: cell-based
human TLR7 = target: T1, human TLR7 (Homo sapiens, UniProt Q9NYK1); assay: TLR7 inhibition reporter assay (HEK-Blue SEAP); details: HEK-Blue cells overexpressing human TLR7, stimulated with gardiquimod 7.5 μM, 22 hour incubation
T1 construct: host or cells: HEK-Blue cells
T1 sequence (Q9NYK1 27-1049): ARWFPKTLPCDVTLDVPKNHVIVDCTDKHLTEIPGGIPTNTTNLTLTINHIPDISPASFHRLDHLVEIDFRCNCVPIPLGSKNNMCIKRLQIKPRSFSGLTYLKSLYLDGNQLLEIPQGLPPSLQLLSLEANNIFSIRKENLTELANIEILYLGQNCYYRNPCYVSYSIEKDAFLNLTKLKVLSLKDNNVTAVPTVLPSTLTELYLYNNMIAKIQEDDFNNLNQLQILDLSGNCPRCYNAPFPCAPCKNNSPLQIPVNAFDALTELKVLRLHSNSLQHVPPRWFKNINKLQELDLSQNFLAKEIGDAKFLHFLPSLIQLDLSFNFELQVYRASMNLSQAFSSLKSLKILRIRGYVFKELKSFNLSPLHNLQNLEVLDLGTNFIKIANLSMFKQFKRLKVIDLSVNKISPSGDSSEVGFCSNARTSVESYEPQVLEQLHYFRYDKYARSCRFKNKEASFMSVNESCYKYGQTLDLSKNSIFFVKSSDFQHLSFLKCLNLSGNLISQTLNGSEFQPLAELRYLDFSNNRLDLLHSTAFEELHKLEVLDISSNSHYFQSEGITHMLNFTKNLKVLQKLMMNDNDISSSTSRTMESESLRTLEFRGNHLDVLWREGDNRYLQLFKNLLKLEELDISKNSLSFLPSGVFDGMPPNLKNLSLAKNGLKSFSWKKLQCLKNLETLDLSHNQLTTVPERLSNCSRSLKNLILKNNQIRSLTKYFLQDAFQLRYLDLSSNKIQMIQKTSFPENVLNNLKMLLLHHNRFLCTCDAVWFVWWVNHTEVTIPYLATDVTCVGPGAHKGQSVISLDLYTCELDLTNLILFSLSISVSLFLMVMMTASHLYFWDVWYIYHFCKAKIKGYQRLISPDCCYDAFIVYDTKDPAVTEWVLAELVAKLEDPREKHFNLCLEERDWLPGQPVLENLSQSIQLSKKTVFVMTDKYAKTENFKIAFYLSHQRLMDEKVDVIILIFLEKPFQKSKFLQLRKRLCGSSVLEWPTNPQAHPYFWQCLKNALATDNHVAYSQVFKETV
Outline: (§1)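 HEK-Blue cells overexpressing the receptor, with an NF-κB/AP-1-driven SEAP reporter, were pre-treated with compound (0.05 nM to 50 μM) for 30 min at room temperature. Stimulation used gardiquimod 7.5 μM (TLR7), R848 15.9 μM (TLR8) or ODN2006 5 nM (TLR9), followed by 22 h at 37 °C.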

human TLR8 = target: T2, human TLR8 (Homo sapiens, UniProt Q9NR97); assay: TLR8 inhibition reporter assay (HEK-Blue SEAP); details: HEK-Blue cells overexpressing human TLR8, stimulated with R848 15.9 μM, 22 hour incubation
T2 construct: host or cells: HEK-Blue cells
T2 sequence (Q9NR97 27-1041): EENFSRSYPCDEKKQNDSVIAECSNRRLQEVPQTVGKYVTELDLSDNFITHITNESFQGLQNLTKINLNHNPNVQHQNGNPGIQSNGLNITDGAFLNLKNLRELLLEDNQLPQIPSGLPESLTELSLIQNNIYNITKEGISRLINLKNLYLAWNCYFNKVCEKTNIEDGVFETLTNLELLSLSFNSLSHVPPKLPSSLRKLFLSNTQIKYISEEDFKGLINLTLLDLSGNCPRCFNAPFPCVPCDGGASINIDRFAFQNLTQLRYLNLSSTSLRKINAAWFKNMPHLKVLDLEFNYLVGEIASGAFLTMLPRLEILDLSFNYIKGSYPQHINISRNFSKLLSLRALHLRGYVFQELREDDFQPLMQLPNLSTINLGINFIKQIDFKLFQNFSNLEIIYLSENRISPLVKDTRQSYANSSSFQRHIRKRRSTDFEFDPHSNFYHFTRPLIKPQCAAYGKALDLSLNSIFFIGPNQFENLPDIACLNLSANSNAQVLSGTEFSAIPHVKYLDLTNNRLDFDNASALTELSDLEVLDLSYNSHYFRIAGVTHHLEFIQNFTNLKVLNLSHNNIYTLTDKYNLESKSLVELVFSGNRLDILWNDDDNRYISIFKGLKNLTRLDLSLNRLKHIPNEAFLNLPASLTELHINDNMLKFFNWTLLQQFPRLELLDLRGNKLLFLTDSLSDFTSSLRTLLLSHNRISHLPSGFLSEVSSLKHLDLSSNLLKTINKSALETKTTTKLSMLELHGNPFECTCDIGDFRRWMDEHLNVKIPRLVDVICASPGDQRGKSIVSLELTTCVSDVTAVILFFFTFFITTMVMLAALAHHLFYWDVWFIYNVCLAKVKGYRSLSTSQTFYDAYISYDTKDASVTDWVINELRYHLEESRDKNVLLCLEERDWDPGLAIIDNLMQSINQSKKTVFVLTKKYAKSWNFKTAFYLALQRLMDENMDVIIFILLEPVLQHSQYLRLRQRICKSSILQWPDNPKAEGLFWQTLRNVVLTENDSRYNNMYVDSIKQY
Outline: as §1

human TLR9 = target: T3, human TLR9 (Homo sapiens, UniProt Q9NR96); assay: TLR9 inhibition reporter assay (HEK-Blue SEAP); details: HEK-Blue cells overexpressing human TLR9, stimulated with ODN2006 5 nM, 22 hour incubation
T3 construct: host or cells: HEK-Blue cells
T3 sequence (Q9NR96 26-1032): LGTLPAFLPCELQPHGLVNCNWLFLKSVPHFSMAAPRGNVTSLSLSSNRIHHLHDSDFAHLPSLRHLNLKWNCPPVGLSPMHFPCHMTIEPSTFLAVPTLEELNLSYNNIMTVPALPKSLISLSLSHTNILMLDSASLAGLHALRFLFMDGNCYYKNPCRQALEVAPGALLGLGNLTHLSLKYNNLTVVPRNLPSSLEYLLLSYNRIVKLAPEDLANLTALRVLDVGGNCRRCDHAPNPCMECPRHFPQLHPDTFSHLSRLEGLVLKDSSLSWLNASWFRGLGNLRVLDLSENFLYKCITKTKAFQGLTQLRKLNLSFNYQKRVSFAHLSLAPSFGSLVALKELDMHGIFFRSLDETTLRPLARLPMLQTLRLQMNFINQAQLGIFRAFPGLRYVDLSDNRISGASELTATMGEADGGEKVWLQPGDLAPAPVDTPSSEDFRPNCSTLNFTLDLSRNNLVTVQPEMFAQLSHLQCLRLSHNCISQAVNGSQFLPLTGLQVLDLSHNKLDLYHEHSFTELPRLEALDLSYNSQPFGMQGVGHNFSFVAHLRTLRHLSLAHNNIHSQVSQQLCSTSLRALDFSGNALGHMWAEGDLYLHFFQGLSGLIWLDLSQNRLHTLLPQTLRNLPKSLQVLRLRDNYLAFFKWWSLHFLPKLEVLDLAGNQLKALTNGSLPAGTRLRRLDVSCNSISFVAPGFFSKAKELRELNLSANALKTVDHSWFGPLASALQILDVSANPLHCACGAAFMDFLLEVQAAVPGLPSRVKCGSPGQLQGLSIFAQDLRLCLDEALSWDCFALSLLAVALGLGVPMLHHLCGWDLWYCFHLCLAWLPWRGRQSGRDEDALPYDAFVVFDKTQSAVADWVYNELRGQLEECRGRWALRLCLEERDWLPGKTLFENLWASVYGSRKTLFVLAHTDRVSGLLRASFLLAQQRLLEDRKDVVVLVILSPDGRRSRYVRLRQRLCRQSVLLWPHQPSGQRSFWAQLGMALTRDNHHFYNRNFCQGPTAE
Outline: as §1

SMILES | IC50 (human TLR7) | IC50 (human TLR8) | IC50 (human TLR9)
COc1cc(-c2cc3[nH]ncc3cc2C)cn2ncnc12 [Example 64, 8-methoxy-6-(5-methyl-1H-indazol-6-yl)-[1,2,4]triazolo[1,5-a]pyridine] | 905 nM | 41.8 nM | 9040 nM
Cc1cc(-c2cc(C)c3ncnn3c2)cc2[nH]ncc12 [Example 65, 8-methyl-6-(4-methyl-1H-indazol-6-yl)-[1,2,4]triazolo[1,5-a]pyridine] | 219 nM | 47 nM | ≥ 50000 nM
COc1cc(-c2cc(C)c3cn[nH]c3c2)cn2ncnc12 [Example 66, 8-methoxy-6-(4-methyl-1H-indazol-6-yl)-[1,2,4]triazolo[1,5-a] pyridine] | 218 nM | 45.4 nM | 8840 nM
Cc1cc2c(C3CCN(CC(C)(C)O)CC3)n[nH]c2cc1-c1cc(C)c2ncnn2c1 [Example 67, 2-methyl-1-(4-(5-methyl-6-(8-methyl-[1,2,4]triazolo[1,5-a]pyridin-6-yl)-1H-indazol-3-yl)piperidin-1-yl)propan-2-ol] | 23.8 nM | 0.9 nM | 3960 nM
Cc1cc2c(C3CCN(CCS(C)(=O)=O)CC3)n[nH]c2cc1-c1cc(C)c2ncnn2c1 [Example 68, 8-methyl-6-(5-methyl-3-(1-(2-(methylsulfonyl)ethyl)piperidin-4-yl)-1H-indazol-6-yl)-[1,2,4]triazolo[1,5-a]pyridine] | 68 nM | 2.5 nM | 13000 nM
Cc1cc2c(C3CCN(CCC#N)CC3)n[nH]c2cc1-c1cc(C)c2ncnn2c1 [Example 72, 3-(4-(5-methyl-6-(8-methyl-[1,2,4]triazolo[1,5-a]pyridin-6-yl)-1H-indazol-3-yl)piperidin-1-yl)propanenitrile] | 50.8 nM | 2.3 nM | 11200 nM
Cc1cc2c(C3CCN(C4COC4)CC3)n[nH]c2cc1-c1cc(C)c2ncnn2c1 [Example 73, 8-methyl-6-(5-methyl-3-(1-(oxetan-3-yl)piperidin-4-yl)-1H-indazol-6-yl)-[1,2,4] triazolo[1,5-a]pyridine] | 52.3 nM | 4.3 nM | 9070 nM
Cc1cc2c(C3CCNCC3)n[nH]c2cc1-c1cc(C)c2nnnn2c1 [Example 74, 8-methyl-6-(5-methyl-3-(piperidin-4-yl)-1H-indazol-6-yl) tetrazolo[1,5-a]pyridine] | 49.3 nM | 15.5 nM | 4940 nM
Cc1cc(-c2cc(C)c3ncnn3c2)cc2[nH]nc(C3CCN(C4CCOCC4)CC3)c12 [Example 78, 8-methyl-6-(4-methyl-3-(1-(tetrahydro-2H-pyran-4-yl)piperidin-4-yl)-1H-indazol-6-yl)-[1,2,4]triazolo[1,5-a]pyridine] | 92.2 nM | 252 nM | 24500 nM

The next molecules have a lower IC50 (human TLR7) than those just listed; values first:

IC50 (human TLR7) | IC50 (human TLR8) | IC50 (human TLR9) | SMILES
18 nM | 1.4 nM | 1310 nM | Cc1cc2c(C3CCN(CCNS(C)(=O)=O)CC3)n[nH]c2cc1-c1cc(C)c2ncnn2c1 [Example 69, N-(2-(4-(5-methyl-6-(8-methyl-[1,2,4]triazolo[1,5-a]pyridin-6-yl)-1H-indazol-3-yl)piperidin-1-yl)ethyl) methanesulfonamide]
18.3 nM | 1.4 nM | 6210 nM | Cc1cc2c(C3CCN(CC(N)=O)CC3)n[nH]c2cc1-c1cc(C)c2ncnn2c1 [Example 70, 2-(4-(5-methyl-6-(8-methyl-[1,2,4]triazolo[1,5-a]pyridin-6-yl)-1H-indazol-3-yl)piperidin-1-yl)acetamide]
9.8 nM | 3.3 nM | 1370 nM | Cc1cc2c(C3CCN(CC#N)CC3)n[nH]c2cc1-c1cc(C)c2ncnn2c1 [Example 71, 2-(4-(5-methyl-6-(8-methyl-[1,2,4]triazolo[1,5-a]pyridin-6-yl)-1H-indazol-3-yl)piperidin-1-yl)acetonitrile]
7.2 nM | 14.1 nM | 1920 nM | Cc1cc(-c2cc(C)c3ncnn3c2)cc2[nH]nc(C3CCN(C(=O)CN(C)C)CC3)c12 [Example 75, 2-(dimethylamino)-1-(4-(4-methyl-6-(8-methyl-[1,2,4]triazolo[1,5-a]pyridin-6-yl)-1H-indazol-3-yl)piperidin-1-yl)ethan-1-one]
6.9 nM | 37.8 nM | 2110 nM | Cc1cc(-c2cc(C)c3ncnn3c2)cc2[nH]nc(C3CCN(CC(=O)N(C)C)CC3)c12 [Example 76, N,N-dimethyl-2-(4-(4-methyl-6-(8-methyl-[1,2,4]triazolo[1,5-a]pyridin-6-yl)-1H-indazol-3-yl)piperidin-1-yl) acetamide]
11.1 nM | 10.9 nM | 2190 nM | Cc1cc(-c2cc(C)c3ncnn3c2)cc2[nH]nc(C3CCN(CC(C)(C)O)CC3)c12 [Example 77, 2-methyl-1-(4-(4-methyl-6-(8-methyl-[1,2,4]triazolo[1,5-a]pyridin-6-yl)-1H-indazol-3-yl)piperidin-1-yl)propan-2-ol]
